Measurements as given in patent US6248586A, “Antisense modulation of PKA catalytic subunit C-alpha expression” (Isis Pharmaceuticals, Inc., priority 1999, dated 2001).

Tested on: human PKA catalytic subunit C-alpha mRNA
Assay: Inhibition of PKA catalytic subunit C-alpha mRNA levels in oligonucleotide-treated cells, quantitative real-time PCR
Type: cell-based
Design: concentration or dose not given beside the values
Details: Table 1, phosphorothioate oligodeoxynucleotides, averages from two experiments
Description: when cells reached 80% confluency, they were treated with oligonucleotide. For cells grown in 96-well plates, wells were washed once with 200 μL. OPTI-MEM™-1 reduced-serum medium (Gibco BRL) and then treated with 130 μL of OPTI-MEM™-1 containing 3.75 μg/mL LIPOFECTIN™ (Gibco BRL) and the desired concentration of oligonucleotide. After 4-7 hours of treatment, the medium was replaced with fresh medium. Cells were harvested 16-24 hours after oligonucleotide treatment.
Poly(A)+ mRNA was isolated according to Miura et al., Clin. Chem., 1996, 42, 1758-1764. Other methods for poly(A)+ mRNA isolation are taught in, for example, Ausubel, F. M. et al., Current Protocols in Molecular Biology, Volume 1, pp. 4.5.1-4.5.3, John Wiley & Sons, Inc., 1993. Briefly, for cells grown on 96-well plates, growth medium was removed from the cells and each well was washed with 200 μL cold PBS. 60 μL lysis buffer (10 mM Tris-HCl, pH 7.6, 1 mM EDTA, 0.5 M NaCl, 0.5% NP-40, 20 mM vanadyl-ribonucleoside complex) was added to each well, the plate was gently agitated and then incubated at room temperature for five minutes. 55 μL of lysate was transferred to Oligo d(T) coated 96-well plates (AGCT Inc., Irvine Calif.). Plates were incubated for 60 minutes at room temperature, washed 3 times with 200 μL of wash buffer (10 mM Tris-HCl pH 7.6, 1 mM EDTA, 0.3 M NaCl). After the final wash, the plate was blotted on paper towels to remove excess wash buffer and then air-dried for 5 minutes. 60 μL of elution buffer (5 mM Tris-HCl pH 7.6), preheated to 70° C. was added to each well, the plate was incubated on a 90° C. hot plate for 5 minutes, and the eluate was then transferred to a fresh 96-well plate.
Quantitat:ion of PKA catalytic subunit C-alpha mRNA levels was determined by real-time quantitative PCR using the ABI PRISM™ […] Sequence Detection System (PE-Applied Biosystems, Foster City, Calif.) according to manufacturer's instructions. This is a closed-tube, non-gel-based, fluorescence detection system which allows high-throughput quantitation of polymerase chain reaction (PCR) products in real-time. As opposed to standard PCR, in which amplification products are quantitated after the PCR is completed, products in real-time quantitative PCR are quantitated as they accumulate. This is accomplished by including in the PCR reaction an oligonucleotide probe that anneals specifically between the forward and reverse PCR primers, and contains two fluorescent dyes. A reporter dye (e.g., JOE, FAM, or VIC, obtained from either Operon Technologies Inc., Alameda, Calif. or PE-Applied Biosystems, Foster City, Calif.) is attached to the 5' end of the probe and a quencher dye (e.g., TAMRA, obtained from either Operon Technologies Inc., Alameda, Calif. or PE-Applied Biosystems, Foster City, Calif.) is attached to the 3' end of the probe. When the probe and dyes are intact, reporter dye emission is quenched by the proximity of the 3' quencher dye. During amplification, annealing of the probe to the target sequence creates a substrate that can be cleaved by the 5'-exonuclease activity of Taq polymerase. […] With each cycle, additional reporter dye molecules are cleaved from their respective probes, and the fluorescence intensity is monitored at regular intervals by laser optics built into the ABI PRISM™ 7700 Sequence Detection System. In each assay, a series of parallel reactions containing serial dilutions of mRNA from untreated control samples generates a standard curve that is used to quantitate the percent inhibition after antisense oligonucleotide treatment of test samples.
PCR reagents were obtained from PE-Applied Biosystems, Foster City, Calif. […]

Substance	% Inhibition of PKA catalytic subunit C-alpha mRNA levels [%]
102584 (antisense CACACAGGTTGAATCGCCCC; chemistry not given here) [compound 102584]	61
102502 (antisense TAGATGAGATCCAGCGAGTG; chemistry not given here) [compound 102502]	28
102543 (antisense GCTTCTCTTTAAAATGGATT; chemistry not given here) [compound 102543]	16
102436 (antisense TGGCTGCGGCCGGCGGCCCG; chemistry not given here) [compound 102436]	49
102478 (antisense CAAACTGATCCAAGTGGGCT; chemistry not given here) [compound 102478]	73
102589 (antisense TAGTTTTCAAATATGTTTAC; chemistry not given here) [compound 102589]	0
102498 (antisense GAACATCTCCCCGCCGGGCA; chemistry not given here) [compound 102498]	13
102530 (antisense GGAGCAGCTGGTGTTTCTGT; chemistry not given here) [compound 102530]	39
102446 (antisense TGCCCATCGCGGCGGCGGCG; chemistry not given here) [compound 102446]	29
102462 (antisense GCGGCGGCGTTGCCCATCGC; chemistry not given here) [compound 102462]	67
102454 (antisense CGGCGTTGCCCATCGCGGCG; chemistry not given here) [compound 102454]	53
102442 (antisense CATCGCGGCGGCGGCGGCCG; chemistry not given here) [compound 102442]	49
102573 (antisense AGCACAAATGAGAAAGTGGG; chemistry not given here) [compound 102573]	7
102510 (antisense TCTGCGAAGAAGGGCGGGTA; chemistry not given here) [compound 102510]	0
102547 (antisense ACCCTCGCAGGATTGGCAGA; chemistry not given here) [compound 102547]	53
102440 (antisense TCGCGGCGGCGGCGGCCGGG; chemistry not given here) [compound 102440]	19
102448 (antisense GTTGCCCATCGCGGCGGCGG; chemistry not given here) [compound 102448]	47
102444 (antisense CCCATCGCGGCGGCGGCGGC; chemistry not given here) [compound 102444]	47
102506 (antisense GCGGCCCTTCACGCGCTTGG; chemistry not given here) [compound 102506]	0
102514 (antisense TCCTTCAAGTCAGAGCTGAA; chemistry not given here) [compound 102514]	44
102458 (antisense GGCGGCGTTGCCCATCGCGG; chemistry not given here) [compound 102458]	69
102494 (antisense GTTGTCCTTGAAGGAGAACT; chemistry not given here) [compound 102494]	0
102490 (antisense GCTTGCAGGATGCGCTTTTC; chemistry not given here) [compound 102490]	66
102526 (antisense GGCATGCCCCTAAAACTCAG; chemistry not given here) [compound 102526]	45
102568 (antisense CAGGCAGCCCCTCCCCAGCA; chemistry not given here) [compound 102568]	49

Same assay, conditions: Table 2, chimeric phosphorothioate 2'-MOE gapmers, averaged from two experiments

Substance	% Inhibition of PKA catalytic subunit C-alpha mRNA levels [%]
102660 (antisense CCAGCATCACCCGCCCGAAG; chemistry not given here) [compound 102660]	82
102727 (antisense CGCTGCTGGGAGGAAAGACT; chemistry not given here) [compound 102727]	60
102619 (antisense TGCCCATCGCGGCGGCGGCG; chemistry not given here) [compound 102619]	70
102707 (antisense GGAGCAGCTGGTGTTTCTGT; chemistry not given here) [compound 102707]	73
102676 (antisense GAACATCTCCCCGCCGGGCA; chemistry not given here) [compound 102676]	92
102653 (antisense ATTCTTTCACGCTCTCCTGC; chemistry not given here) [compound 102653]	55
102649 (antisense GGCGGCGGCGGCGTTGCCCA; chemistry not given here) [compound 102649]	85
102657 (antisense CAAACTGATCCAAGTGGGCT; chemistry not given here) [compound 102657]	73
102731 (antisense TGCAGGGATGCCCTCCCCAC; chemistry not given here) [compound 102731]	54
102636 (antisense GGCGGCGTTGCCCATCGCGG; chemistry not given here) [compound 102636]	41
102609 (antisense CATCGCGGCGGCGGCGGCCG; chemistry not given here) [compound 102609]	66
102736 (antisense CCTTGAACCCCGGGCCGTGG; chemistry not given here) [compound 102736]	65
102716 (antisense AAGCAACCCACTGAACATGT; chemistry not given here) [compound 102716]	63
102700 (antisense CTTCCTCATAGTCGTCAAAG; chemistry not given here) [compound 102700]	44
102744 (antisense TGGCTCCCCAGCGGCTCCCC; chemistry not given here) [compound 102744]	77
102750 (antisense TAGTTTTCAAATATGTTTAC; chemistry not given here) [compound 102750]	66
102688 (antisense TCTGCGAAGAAGGGCGGGTA; chemistry not given here) [compound 102688]	52
102684 (antisense GCGGCCCTTCACGCGCTTGG; chemistry not given here) [compound 102684]	63
102624 (antisense GTTGCCCATCGCGGCGGCGG; chemistry not given here) [compound 102624]	81
